Laboratory results: patent publication US20040121947A1, “Compounds which inhibit beta-secretase activity and methods of use thereof” (Oklahoma Medical Research Foundation, priority 2000, published 2004)
Several values for one entry are separate records, joined by “and”; a condition that tells them apart may be missing. Equal values may be shown once. Read-outs that look alike come from different tables or passages of the source. *1 amine or outer side, *2 acyl side, *3 side chain or, on linkers, in order; H or OH if unused. Where a SMILES comes first, the peptide text is derived from it. [ ]: non-standard residue; d: D form. LeuΨ(S-CHOHCH2)Ala = CC(C)C[C@H](N[*:1])[C@@H](O)C[C@@H](C)C(=O)[*:2]

What was measured:
memapsin 2 = molecular target: T1, memapsin 2 (Homo sapiens, UniProt P56817); experiment: Inhibition of memapsin 2 proteolytic activity, fluorogenic substrate FS-2; format: biochemical; conditions: for % Inhibition Mep2: enzyme concentration equals the compound concentration; for Selectivity: Ki for memapsin 2 lower than Ki for memapsin 1: memapsin 2 relative to memapsin 1; for % Inh (M1/M2): ratio of % inhibition memapsin 1 / memapsin 2, 1 or less = greater inhibition of memapsin 2
T1 construct: pET-11 vector-derived residues 1-15 of promemapsin 2-T1 (N, cleaved yes); made in house; host or cells: E. coli
Procedure, shortened: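 Spontaneously activated memapsin 2 (80 nM final) equilibrated with inhibitor (about 10 nM–10 μM) in 0.1 M NaOAc pH 4.0 with 10% DMSO for 20 min at 37 °C, with fluorogenic substrate FS-2. Ki converted from Ki apparent using substrate concentration and Km.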

memapsin 1 = molecular target: T2, memapsin 1 (Homo sapiens, UniProt Q9Y5Z0); experiment: Inhibition of memapsin 1 proteolytic activity, fluorogenic substrate FS-2; format: biochemical; conditions: for % Inhibition Mep1: enzyme concentration equals the compound concentration
T2 construct: pET-11 vector-derived residues 1-14 of promemapsin 1-T1 (N, cleaved yes); made in house; host or cells: E. coli
T2 sequence (Q9Y5Z0 63-466 limits assumed): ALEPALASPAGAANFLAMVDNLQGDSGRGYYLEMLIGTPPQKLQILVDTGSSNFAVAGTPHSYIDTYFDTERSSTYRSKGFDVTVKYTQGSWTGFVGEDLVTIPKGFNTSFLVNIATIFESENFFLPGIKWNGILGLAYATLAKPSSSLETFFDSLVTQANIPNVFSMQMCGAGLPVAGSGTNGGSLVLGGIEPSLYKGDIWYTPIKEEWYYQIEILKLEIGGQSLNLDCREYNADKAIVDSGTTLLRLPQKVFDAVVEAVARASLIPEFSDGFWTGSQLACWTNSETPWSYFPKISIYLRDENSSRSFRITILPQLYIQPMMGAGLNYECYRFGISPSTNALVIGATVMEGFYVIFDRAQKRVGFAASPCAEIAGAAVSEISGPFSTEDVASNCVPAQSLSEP
Experimental: Vi/Vo depicts the ratio of initial cleavage velocities of the substrate FS-2 (Ermolieff, et al., Biochemistry […]:12450-12456 (2000)) by memapsin 1 or memapsin 2 in the absence (Vo) or presence (Vi) of a compound of the invention. […] The Vi/Vo values depicted in Table 1 were determined at conditions under which the enzyme and inhibitor concentrations were equal (e.g., about 80 nM, 100 nM).
The relationship of Ki (independent of substrate concentration) to Kiapp is a function of substrate concentration in the assay and the Km for cleavage of the substrate by either memapsin 1 or memapsin 2 by the relationship:
An aliquot of the inhibitor of known concentration in DMSO was diluted into 1.8 ml 0.1 M NaOAc, pH 4.0. DMSO and added to a final concentration of 10% (v/v), and memapsin 2 (final concentration of 80 nM), followed by a 20 minute equilibration at 37° C. Compounds were evaluated for the ability to inhibit memapsin 1 and memapsin 2 at concentrations between about 10 nM and about 10 μm of inhibitor.
The relationship of Ki (independent of substrate concentration) to Kiapp is a function of substrate concentration in the assay and the Km for cleavage of the substrate by either memapsin 1 or memapsin 2 by the relationship: […]

plasma Aβ40 [1] = experiment: Inhibition of Aβ production in transgenic mouse model of Alzheimer's disease (plasma Aβ40 ELISA); format: in vivo, APP/F mice; conditions: for Sustainment of inhibition of plasma Aβ40: over a 24-h period; for Blood brain barrier penetration (from reduction of plasma Aβ): transgenic mice
Experimental: Compounds MMI-138, MMI-165, and MMI-185 were synthesized as described above. Compounds were dissolved in 1 ml of dimethyl sulfoxide (DMSO) to a final concentration of about 1 mg/ml for MMI-165 and MMI-185, and about 10 mg/ml for MMI-138. […] Inhibitors were diluted into PBS or H2O immediately prior to injection, as described below. Inhibition constants were determined by methods described by Ermolieff, et al. (Biochem. 39:12450-12456 (2000), the teachings of which are incorporated hereby in their entirety).
The tg2576 strain of mice was obtained from Taconic (Germantown, N.Y.). The APP/F strain of mice were obtained by mating the tg2576 mice with the FVB/N strain. To determine presence of the Swedish APP gene in APP/F mice, the DNA from mice was isolated according to the Qiagen Dneasy™ Tissue Kit. PCR (Qiagen kit and protocol) was used to amplify the fragment of DNA corresponding to the human Swedish APP gene. The following primers were used: […]
At the age of three months, animals of the Alzheimer's disease mouse model APP/F were injected intraperitoneally (i.p.) with about 163 nanomoles of either compounds MMI-138 (molecular weight 674 g/mole; 110 μg per animal, n=2), MMI-165 (molecular weight 626 g/mole; 102 μg per animal, n=2), or MMI-185 (molecular weight 686; 112 μg per animal, n=2).
Heparinized capillary tubes collected blood samples from anesthetized animals from either the retro-orbital sinus or from the saphenous vein at specified intervals following injection. The blood samples were transferred to sterile 1.5 mL microcentrifuge tubes, centrifuged at 5,100 RPM for 10 minutes to recover the plasma (supernatant), and stored at −70° C. until analysis for the Aβ40 by Enzyme Linked-Immuno-Sorbent Assay (ELISA).
A sandwich ELISA (BioSource International, Camarillo, Calif.) was used to determine the levels of Aβ40 in plasma samples. The ELISA utilizes a primary antibody specific for human Aβ for the immobilization of the amino-terminus and a detection antibody specific for the carboxy-terminal amino acids of Aβ40. A conjugated secondary antibody was used to detect the ternary complex, using a stabilized chromogen substrate, quantifiable following addition of 1 M HCl, with the optical densities measured at 450 nm. The procedures were followed according to the BioSource protocol. Optical densities were converted to pg/ml quantities of Aβ40 using a linear regression of the optical densities of standards obtained from the commercial kit, to their known concentrations.

plasma Aβ40 [2] = experiment: Inhibition of Aβ production in transgenic mice (plasma Aβ40 ELISA); format: in vivo, tg2576 mice; conditions: for Effect on plasma Aβ40: i.p. injection, 2 hours following injection
Experimental: Six-month-old tg2576 mice (n=21) were injected intraperitoneally (i.p.) 200 μg of conjugate CPI-3 or with control DMSO, in 200 μl of PBS. Plasma were collected from anesthetized animals by orbital bleed or sephaneous vein into heparinized capillary tubes and clarified by centrifugation. Plasma Aβ 1-40 levels were determined by capture ELISA (BioSource International, Camarillo, Calif.). The peptide analogue of CPI-3, with an amide group instead of the hydroxyethylene isostere was synthesized by SynPep (Camarillo, Calif.).
Since the conjugate inhibitors can cross the blood brain barrier in vivo, enter cells both in vitro and in vivo, and inhibit Aβ production in vitro, inhibition of Aβ production in vivo was determined. Tg2576 mice, expressing the Swedish mutation of the human amyloid precursor protein (including SEQ ID NO: 11) (Hsiao, K., et al., Science 274:99-102 (1996), the teachings of which are incorporated hereby in their entirety) were injected with CPI-3, which is identical in amino acid sequence to CPI-2 and lacks the amino-terminal fluorescein (FAM) derivative. Blood was collected from tg2576 animals at time intervals following injection of 400 μg of CPI-3.
At ages up to 9 months, plasma Aβ in the tg2576 mice serves as a reliable marker for brain Aβ production as a result of memapsin 2 activity (Kawarabayashi, T., et al., J Neurosci. 21:372-381 (2001)). Nine tg2576 mice were injected intraperitoneally with various doses of inhibitor CPI-3.

[3] = Table 9, read-out: Ki apparent Mep2
[4] = memapsin 2, apparent Ki in presence of substrate FS-2, read-out: Ki app
[5] = within 30 minutes following i.p. injection of about 163 nanomoles
[6] = memapsin 2, independent of substrate, converted from Ki apparent, read-out: Ki
[7] = four injections at 2 hour intervals

T1 sequence (P56817 41-454 limits assumed): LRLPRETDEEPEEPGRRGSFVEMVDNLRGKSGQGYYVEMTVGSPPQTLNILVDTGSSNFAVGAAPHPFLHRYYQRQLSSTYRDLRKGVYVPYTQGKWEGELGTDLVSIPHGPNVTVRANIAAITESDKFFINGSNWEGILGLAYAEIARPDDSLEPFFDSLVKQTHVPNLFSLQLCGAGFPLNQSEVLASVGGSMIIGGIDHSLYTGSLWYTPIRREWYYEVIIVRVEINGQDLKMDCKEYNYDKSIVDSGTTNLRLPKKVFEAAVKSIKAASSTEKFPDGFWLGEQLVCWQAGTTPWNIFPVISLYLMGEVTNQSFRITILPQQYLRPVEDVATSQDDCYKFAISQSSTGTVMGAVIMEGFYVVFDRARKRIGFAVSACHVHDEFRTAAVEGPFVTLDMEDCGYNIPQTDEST

Structure (SMILES)	Ki (memapsin 2; [3]) [µM]	% Inhibition Mep2 (memapsin 2) [%]	Ki (memapsin 2; [4]) [µM]	Ki (memapsin 2; memapsin 2, read-out: Ki)	% Inh (M1/M2) (memapsin 2)	% Inhibition Mep1 (memapsin 1) [%]	Blood brain barrier penetration (from reduction of plasma Aβ) (plasma Aβ40 [1])	Ki (memapsin 2; [6]) [µM]	Sustainment of inhibition of plasma Aβ40 (plasma Aβ40 [1])	Decrease in plasma Aβ40 (plasma Aβ40 [1]; [5]) [%]	Effect on plasma Aβ40 (plasma Aβ40 [2])	other results
CC(C)C[C@H](NC(=O)[C@@H](N)CCC(=O)O)C(=O)N[C@@H](CC(=O)O)C(=O)N[C@@H](CC(C)C)[C@@H](O)C[C@@H](C)C(=O)N[C@H](C(=O)N[C@@H](CCC(=O)O)C(=O)N[C@@H](Cc1ccccc1)C(=O)O)C(C)C [OM00-3, ELDL*AVEF] (H-ELD[LeuΨ(S-CHOHCH2)Ala]VEF-OH)											did not reduce plasma Aβ40 levels	Decrease in plasma Aβ40 (plasma Aβ40 [1]; 2 hours following injection of 163 nmoles): 16%; Inhibition of Aβ40 production in vivo (plasma Aβ40 [1]; plasma Aβ40): failed to inhibit Aβ40 production
CC(C)C[C@H](NC(=O)[C@@H](N)CCC(=O)O)C(=O)N[C@@H](CC(=O)O)C(=O)N[C@@H](CC(C)C)[C@@H](O)C[C@@H](C)C(=O)N[C@H](C(=O)N[C@@H](CCC(=O)O)C(=O)N[C@@H](Cc1ccccc1)C(=O)NCC(=O)NCC(=O)N[C@H](CCCNC(=N)N)C(=O)N[C@H](CCCNC(=N)N)C(=O)N[C@H](CCCNC(=N)N)C(=O)N[C@H](CCCNC(=N)N)C(=O)N[C@H](CCCNC(=N)N)C(=O)N[C@H](CCCNC(=N)N)C(=O)N[C@H](CCCNC(=N)N)C(=O)N[C@H](CCCNC(=N)N)C(=O)N[C@H](CCCNC(=N)N)C(=O)O)C(C)C [CPI-3] (H-ELD[LeuΨ(S-CHOHCH2)Ala]VEFGG[dR][dR][dR][dR][dR][dR][dR][dR][dR]-OH)											significant dose-dependent reduction	Plasma Aβ40 level relative to initial value (plasma Aβ40 [2]; 2 hours following i.p. injection): about one third; Aβ level, average low, % of the average initial value (plasma Aβ40 [2]; [7]): 29%; Inhibition of plasma Aβ (plasma Aβ40 [2]; [7]): about 80%; Half-life of inhibition of plasma Aβ40 (plasma Aβ40 [2]; single i.p. injection): 3 h; Time of return of plasma Aβ40 level to the initial value (plasma Aβ40 [2]; single i.p. injection): ≤ 8 h

The next lines start with results.

Ki (memapsin 2; [3]) [µM]	% Inhibition Mep2 (memapsin 2) [%]	Ki (memapsin 2; [4]) [µM]	Ki (memapsin 2; memapsin 2, read-out: Ki)	% Inh (M1/M2) (memapsin 2)	% Inhibition Mep1 (memapsin 1) [%]	Blood brain barrier penetration (from reduction of plasma Aβ) (plasma Aβ40 [1])	Ki (memapsin 2; [6]) [µM]	Structure (SMILES)	Sustainment of inhibition of plasma Aβ40 (plasma Aβ40 [1])	Decrease in plasma Aβ40 (plasma Aβ40 [1]; [5]) [%]	Effect on plasma Aβ40 (plasma Aβ40 [2])	other results
0.0142	72	0.0142	0.0142 µM and 0.0088 µM	0.10	7	penetrated the blood brain barrier		CSCC[C@H](NC(=O)OCn1nc(C)cc1C)C(=O)N[C@@H](CC(C)C)[C@@H](O)C[C@@H](C)C(=O)N[C@H](C(=O)NCc1ccccc1)C(C)C [MMI-138]	remained nearly constant	57		Selectivity: Ki for memapsin 2 lower than Ki for memapsin 1 (memapsin 2): about 60 fold; Selectivity: Ki for memapsin 2 lower than Ki for memapsin 1 (memapsin 2; listed as 138): about 60 fold; Ki (memapsin 1; read-out: Ki for memapsin 1): 0.811 µM
0.0245	60	0.0245	0.0153 µM	0.45	27	penetrated the blood brain barrier	0.0153	CSCC[C@H](NC(=O)OCn1nc(C)cc1C)C(=O)N[C@@H](CC(C)C)[C@@H](O)C[C@@H](C)C(=O)N[C@H](C(=O)NC(C)C)C(C)C [MMI-165]	remained nearly constant	46		Vi/Vo (memapsin 2; ratio of initial cleavage velocities of FS-2 with/without compound, enzyme and inhibitor concentrations equal (e.g., about 80 nM, 100 nM)): 0.4
		0.00723	0.0045 µM			penetrated the blood brain barrier	0.00452	COCC[C@H](NC(=O)[C@H](CC(C)C)NC(=O)OC(C)(C)C)C(=O)N[C@@H](CC(C)C)[C@@H](O)C[C@@H](C)C(=O)N[C@@H](CC(C)C)C(=O)NC(C)C [MMI-185]	appeared to return to initial level	63		
